Results taken from patent US20170306090A1, “METHOD FOR MAKING POLYCARBONATE USING A LIQUID KETONE MIXTURE” (SABIC Global Technologies B.V., priority 2014, published 2017).

Experiment: Solubility of diphenyl carbonate in various ketones (gravimetric method)
[1] = Example 1, Temperature 70 °C, molar ratio of ketone to DPC 1:1
[2] = Example 2, Temperature 50 °C, molar ratio of ketone to DPC 1:1
[3] = Example 3, Temperature 50 °C, molar ratio of ketone to DPC 1.5:1
[4] = Example 4, Temperature 25 °C, molar ratio of ketone to DPC 1:1
[5] = Example 5, Temperature 25 °C, molar ratio of ketone to DPC 1.5:1
[6] = Example 6, Temperature 25 °C, molar ratio of ketone to DPC 2:1

Method: The solubility of diphenyl carbonate in various ketones was determined. Solubility was determined based on a gravimetric method.

CCC(=O)CC [Diethyl ketone, diethyl ketone]
Solubility of diphenyl carbonate in the ketone [1]: Yes
Solubility of diphenyl carbonate in the ketone [2]: No
Solubility of diphenyl carbonate in the ketone [3]: Yes
Solubility of diphenyl carbonate in the ketone [4]: No
Solubility of diphenyl carbonate in the ketone [5]: No
Solubility of diphenyl carbonate in the ketone [6]: Yes

CC(=O)CC(C)C [MIBK, methyl isobutyl ketone]
Solubility of diphenyl carbonate in the ketone [1]: Yes
Solubility of diphenyl carbonate in the ketone [2]: No
Solubility of diphenyl carbonate in the ketone [3]: Yes
Solubility of diphenyl carbonate in the ketone [4]: No
Solubility of diphenyl carbonate in the ketone [5]: No
Solubility of diphenyl carbonate in the ketone [6]: No
